Measurements reported in US20060058312A1, “Stabilized aqueous preparation for injection” (priority 2004, published 2006).

Key:
[1] = Change of pH value of the aqueous solution during storage; assay type: physicochemical; conditions: added to aqueous solution of the calcium salt, pH 6 to 7, during storage
[2] = Transmittance and coloring of the aqueous solution during storage; assay type: physicochemical; conditions: added to aqueous solution of the calcium salt, during storage
From the text: The suppressing effect can be attained by the action of ascorbic acid which has been stabilized by sodium pyrosulfite.

suppression of the change of the pH value to the acid region [1]: effectively be suppressed
suppression of the lowering of the transmittance and the coloring [2]: effectively be suppressed
SMILES: O=C1O[C@H]([C@@H](O)CO)C(O)=C1O [ascorbic acid]
